Test results as given in PMC12498190, “A Photocaged N‐Phosphonopiperidinone as a Selective Photo‐Cleavable DPP8/9 Inhibitor” (Chembiochem, 2025).
Where two headings read alike, the source gives them in different places.

Type: physicochemical
Settings: 50 µM in 10% acetonitrile/water, green LED 520-530 nm, 30 W
Experimental: With 5 in our hands, we then started our probe characterization by determining the velocity of the photorelease reaction, i.e., the light‐triggered cleavage of the photocage, thereby delivering again the “active” inhibitor 1. To this end, a 50 µM solution of 5 in 10% acetonitrile in MS‐grade water was irradiated with a green LED lamp (λ = 520‐530 nm, 30 W) for the indicated time periods, and the release of the active inhibitor 1 was quantified via liquid chromatography‐mass spectrometry (LC–MS) analysis (Figure 1A). […] After 3 min, cleavage was quantitative (>99%). Importantly, the only products observed were the desired ‘free’ inhibitor 1 and the cleaved photogroup, indicating a clean activation to 1.
Figure 1 DPP inhibition by photo‐cleavable inhibitors. A) LC‐MS analysis of the photocleavage reaction of 5 after irradiation with green light. 50 µM of compound 5 was irradiated with a green LED lamp (λ = 520‐530 nm, 30 W) for up to 5 min, and the resulting reaction mixture was analyzed via LC‐MS. […] B) Resulting quantification of the photolysis of 5 based on peak areas depicted in A) (n = 3 technical replicates). […] Enzyme activity was determined by measuring the release of AMC from the substrate GP‐AMC. […]
Compound 5 was dissolved in DMSO. In order to quantify the effect of irradiation time on photocleavage of the BODIPY moiety, 50 µL aliquots of a 50 µM solution of 5 in 10% acetonitrile (ACN; VWR Chemicals, USA) in MS‐grade water (VWR Chemicals, USA) were irradiated for 0–5 min with a green LED lamp (λ = 520–530 nm, 30 W; Eurolite, Germany) at room temperature (RT) and gentle shaking (final DMSO concentration: 0.5%).
Quantification of inhibitor release was then determined via LC‐MS on an LTQ XL linear ion trap mass spectrometer (ITMS; Thermo Fisher Scientific, USA) coupled to a DIONEX UltiMate 3000 system (Thermo Fisher Scientific, USA), operated using Xcalibur software 4.4.16.14. […] Quantification was done using Freestyle v1.6. based on the UV spectra (λ = 254 nm) using the Avalon peak detection algorithm. […]

Compound: CCCCCc1ccc(SCCP(=O)(OCC)N2CCC[C@H](NC(=O)OCC3=C4C(C)=CC(C)=[N+]4[B-](C)(C)n4c(C)cc(C)c43)C2=O)cc1 (some centres unmarked) [Compound 5]
- Photocage cleaved off (after 2 min): 95%
- Photocage cleaved off (after 3 min): > 99%
